Reference: patent US5360796A, “Imidazo[1,2-a]pyridinylalkyl phosphonic acid compounds for treatment of neurotoxic injury” (G. D. Searle & Co., priority 1991, dated 1994)

What was measured:
[1] = molecular target: AMPA; test: [3H]AMPA (QUIS) binding assay; design: species or system rat; details: 10 nM [3H]AMPA, 100 mM KSCN, synaptic plasma membranes, pH 7.4, 0-4° C., 10 min; read-out: NMDA Receptor Binding Data, Ki IC50 Binding AMPA
Procedure: Synaptic plasma membranes (SPM) were prepared as previously described [Monahah, J. B. and Michel, J., "Identification and Characterization of an N-methyl-D-aspartate-specific L[^3 H]glutamate Recognition Site in Synaptic Plasma Membranes, J. Neurochem., 48, 1699-1708 (1987)]. The SPM were stored at a concentration of 10-15 mg/ml in 0.32M sucrose, 0.5 mM EDTA, 1 mM MgSO4, 5 mM Tris/SO4, pH 7.4, under liquid nitrogen. The identity and purity of the subcellular fractions were confirmed by both electron microscopy and marker enzymes. Protein concentrations were determined by using a modification of the method of Lowry [Ohnishi, S. T. and Barr, J. K., "A Simplified Method of Quantitating Proteins using the Biuret and Phenol Reagents", Anal. Biochem., 86, 193-197 (1978)]. The SPM were treated identically for the [^3 H]AMPA (QUIS), [^3 H]kainate and sodium-dependent L-[^3 H]-glumatate binding assays. The SPM were thawed at room temperature, diluted twenty-fold with 50mM Tris/acetate, pH 7.4, incubated at 37° C. for 30 minutes, and centrifuged at 100,000 g for 15 minutes. The dilution, incubation, and centrifugation was repeated a total of three times. Prior to use in the NMDA-specific L-[^3 H]-glutamate binding assay the SPM were thawed, diluted twenty fold with 50 mM Tris/acetate, pH 7.4 containing 0.04% (v/v) Triton X-100, incubated for 30 minutes at 37° C. and centrifuged as described above. The Triton X-100 treated membranes were washed with 50 mM Tris/acetate, pH 7.4 and centrifuged at 100,000 g for 15 minutes a total of four times. […] The basic procedure for the receptor subclass binding assays was similar. This general method involved adding the radioligand (12.5 nM L-[^3 H] glutamate; 0.5 nM [^3 H]kainate or 10 nM [^3 H]AMPA) to the appropriate concentration of the test compound and initiating the assay by the addition of ice cold synaptic plasma membranes (0.2-0.45 mg). The binding assays were performed in 1.5 mL centrifuge tubes with the total volume adjusted to 1.0 mL. Additions of test compounds were made in 50 mM Tris/acetate, pH 7.4 and incubations were carried out at 0°-4° C. The incubation time for the NMDA and the AMPA binding assays was 10 minutes, for the kainate binding assay 60 minutes and for the sodium-dependent glutamate binding assay 15 minutes. The AMPA binding assay contained 100 mM KSCN and the sodium-dependent glutamate binding assay contained 150 mM sodium acetate in addition to the previously described reagents. To terminate the incubation, the samples were centrifuged for 15 minutes at 12,000 g and 4° C. in a Beckman Microfuge 12. The supernatant was aspirated and the pelleted membranes dissolved in Beckman BTS-450 tissue solubilizer for a minimum of 6 hours at room temperature. Beckman MP scintillation cocktail containing 7 mL/1 acetic acid was then added and the samples counted on a Beckman LS 5800 or 3801 liquid scintillation counter with automatic corrections for quenching and counting efficiency. Nonspecific binding was defined as the residual binding in the presence of either excess L-glutamate (0.1-0.4 mM), kainate (0.01 mM), or NMDA (0.5 mM), and was 15-25% of the total binding in the NMDA binding assay, 19-27% in the AMPA binding assay, 20-30% in the kainate binding assay and 10-15% in the sodium-dependent binding assay. Radioligand binding to the synaptic plasma membranes was analyzed using Scatchard and Hill transformations and the Ki values of the compounds determined using logit-log transformations. Calculations and regression analysis were performed using templates developed for Lotus 1, 2, 3 as previously described [Pullan, L. M. "Automated Radioligand Receptor Binding Analysis with Templates for Lotus", Computer Appln. Biosci., 3, 131 (1987)]. Binding results are reported in Table I for example compounds of the invention.

[2] = molecular target: TCP (1-[1-(2-thienyl)cyclohexyl]piperidine) binding; test: TCP Modulation Assay; design: species or system rat; details: 2 nM tritiated TCP, 0.05 mM L-glutamate, rat brain SPM, pH 7.4, 25° C., 60 min; read-out: TCP Ki IC50
Procedure: The effect on the TCP (1-[1-(2-thienyl)cyclohexyl]piperidine) binding was measured in rat brain synaptic membranes (SPM) prepared as previously described [J. B. Monahah & J. Michel; J. Neurochem. […] Prior to their use in the binding assay, frozen SPM were thawed, diluted twenty fold with 50 mM Tris/acetate (pH 7.4 containing 0.04% (v/v) Triton X-100), incubated for 30 min. at 37° C. and centrifuged at 95,000 xg for 15 min. The Triton X-100 treated SPM were washed with 5 mM Tris/HCl, pH 7.4 and centrifuged a total of six times. […] The samples were filtered through glass fiber filters (Schleicher & Schuell #32) which have been pretreated with 0.05% (v/v) polyethylenimine, washed 4 times with 2 ml of ice-cold 5 mM Tris/HCl buffer, and then counted on a Beckman LS 5800 liquid scintillation counter with automatic corrections for quenching and counting efficiency. Inhibition of TCP binding was measured as a decrease in the binding in the presence of 0.05 mM L-glutamate. Non-specific binding was defined as the residual binding in the presence of […] phencyclidine.

[3] = tested on: cGMP in cerebellum; test: Assay for Effect on cGMP Levels in Cerebellum; type: in vivo, mouse (Swiss-Webster)
Procedure: The purpose of this assay is to determine the extent of in vivo bioavailability and the potency as an NMDA antagonist of compound of the invention as compared to known NMDA antagonists, namely, 3(2-carboxypiperizine-4-yl)propyl-1-phosphonic acid (CPP) and cis-4-phosphonomethyl-2-piperidinecarboxylic acid (CGS 19755). Male Swiss-Webster mice (17-24 g were injected sub-cutaneously (s.c.) with compound of the invention and the known NMDA antagonist standards 30 minutes prior to sacrifice by focussed microwave irradiation. Groups consisted of 7-10 mice. Compounds of Ex. #7 was dissolved in isotonic saline and all compounds were administered in a volume of 0.2 ml per mouse. Cerebella samples were extracted in IN HCl. Hydrochloric acid in extracts of the cerebellum were freeze-dried for assay of cGMP with a commercial RIA kit (NEN). Statistics (Dunett's t-test) were performed as described previously [P. L. Wood et al., Neurochem., 19, 975-982 (1980)]. ED50 values were calculated from log-logit transformation of the dose-response data.

[4] = Motor impairment, inverted screen test
Procedure: Naive male CD-1 mice (20-30 grams body weight) from Charles River Laboratories, Portage Mich. served as subjects. The mice had ad libitum access to food and water prior to testing and were maintained on a 12 hour light/12 hour dark schedule with testing during the light portion of the cycle. The mice were tested for motor impairment by use of the inverted screen test approximately 5 minutes prior to anticonvulsant testing. […] Mice were placed on 13×13 cm pieces of #4 wire mesh screen which were mounted horizontally. The screens were then slowly inverted. […] PG-Tween is a 1:1 mixture of propylene glycol and Tween 80. […] There were 10 mice in each treatment group.

O=C(O)c1cn2c(CP(=O)(O)O)cccc2n1 [Example 7, 5-(phosphonomethyl)imidazo[1,2-a]pyridine-2-carboxylic acid]
Ki [1]: > 300 µM | Ki [2]: 3.2 µM | ED50 ([3]; Mus musculus, sc, 0.5 h, 30 min prior to sacrifice, read-out: Decrease in cGMP ED50): 18.3 mg/kg | brain bioavailability (in words) ([3]; by decrease of cGMP in mouse cerebellum, s.c.): brain bioavailable | potency relative to CPP (in words) ([3]; s.c., cerebellar cGMP): in the same range of potency as the known NMDA antagonist CPP | Exhibiting Motor Impairments (% of Mice) ([4]; 10 mg/kg s.c.): 30% | Exhibiting Motor Impairments (% of Mice) ([4]; 32 mg/kg s.c.): 50% | Exhibiting Motor Impairments (% of Mice) ([4]; 56 mg/kg s.c.): 70% | Exhibiting Motor Impairments (% of Mice) ([4]; 100 mg/kg s.c.): 90% | TD50 at 0.5 h ([4]; mouse, inverted screen test, sc): 24.6 mg/kg | impaired motor function (in words) ([4]; s.c.): impaired motor function in a similar dose range
